Measured values reported in the supplement of paper PMC10307832.

Experiments:
Test in all cases: relative viability (nuclei count vs DMSO), 5 days (fraction); higher = more cells survive
GSK-J4 + Trametinib = compound: CCOC(=O)CCNc1cc(N2CCc3ccccc3CC2)nc(-c2ccccn2)n1 [GSK-J4] + CC(=O)Nc1cccc(-n2c(=O)n(C3CC3)c(=O)c3c(Nc4ccc(I)cc4F)n(C)c(=O)c(C)c32)c1 [Trametinib] (partner 0.02 µM)
Method in brief: (§1)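 Relative viability divides the nuclei count in treated wells by that in vehicle wells. Lung cancer cell lines were seeded in 1536-well plates, dosed by pin tool the next day, and fixed and stained after 5 days in one step with final 0.05% Triton X-100, 1% formaldehyde and 1 ug/ml Hoechst. Dosing was a single drug or a fixed anchor-drug dose plus five library-drug doses (not always all listed) in √10 steps, and values are medians of duplicate plates imaged at 4×.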

GSK-J4 + Pictilisib = compound: CCOC(=O)CCNc1cc(N2CCc3ccccc3CC2)nc(-c2ccccn2)n1 [GSK-J4] + CS(=O)(=O)N1CCN(Cc2cc3nc(-c4cccc5[nH]ncc45)nc(N4CCOCC4)c3s2)CC1 [Pictilisib] (partner 1 µM)
Method in brief: as §1

GSK-J4 + AZD7762 = compound: CCOC(=O)CCNc1cc(N2CCc3ccccc3CC2)nc(-c2ccccn2)n1 [GSK-J4] + NC(=O)Nc1cc(-c2cccc(F)c2)sc1C(=O)N[C@H]1CCCNC1 [AZD7762] (partner 0.2 µM)
Method in brief: as §1

AZ3146 + Phenformin = compound: CN1CCC(CC1)OC2=CC(=C(C=C2)NC3=NC=C4C(=N3)N(C(=O)N4C)C5CCCC5)OC [AZ3146] + N=C(N)NC(=N)NCCc1ccccc1 [Phenformin] (partner 250 µM)
Method in brief: as §1

| Cell Line | relative viability (GSK-J4 + Trametinib; first compound 0.5 µM) | relative viability (GSK-J4 + Trametinib; first compound 1.581 µM) | relative viability (GSK-J4 + Trametinib; first compound 5 µM) | relative viability (GSK-J4 + Trametinib; first compound 15.81 µM) | relative viability (GSK-J4 + Trametinib; first compound 50 µM) | relative viability (GSK-J4 + Pictilisib; first compound 0.5 µM) | relative viability (GSK-J4 + Pictilisib; first compound 1.581 µM) | relative viability (GSK-J4 + Pictilisib; first compound 5 µM) | relative viability (GSK-J4 + Pictilisib; first compound 15.81 µM) | relative viability (GSK-J4 + Pictilisib; first compound 50 µM) | relative viability (GSK-J4 + AZD7762; first compound 0.5 µM) | relative viability (GSK-J4 + AZD7762; first compound 1.581 µM) | relative viability (GSK-J4 + AZD7762; first compound 5 µM) | relative viability (GSK-J4 + AZD7762; first compound 15.81 µM) | relative viability (GSK-J4 + AZD7762; first compound 50 µM) | relative viability (AZ3146 + Phenformin; first compound 0.08 µM) | relative viability (AZ3146 + Phenformin; first compound 0.253 µM) | relative viability (AZ3146 + Phenformin; first compound 0.8 µM) | relative viability (AZ3146 + Phenformin; first compound 2.53 µM) | relative viability (AZ3146 + Phenformin; first compound 8 µM) |
| --- | --- | --- | --- | --- | --- | --- | --- | --- | --- | --- | --- | --- | --- | --- | --- | --- | --- | --- | --- | --- |
| PC-3 [JPC-3] | 0.783 | 0.551 | 0.598 | 0.647 | 0.64 | 0.644 | 0.647 | 0.757 | 0.742 | 0.671 | 1.04 | 0.55 | 0.932 | 0.748 | 0.555 | 0.465 | 0.476 | 0.517 | 0.521 | 0.461 |
| NCI-H1915 | 0.299 | 0.302 | – | 0.28 | 0.293 | 0.905 | 0.774 | 0.901 | 0.962 | 1.03 | 0.614 | 0.728 | – | 0.592 | 0.722 | 0.285 | 0.375 | 0.381 | 0.365 | 0.343 |
| HOP-62 | 0.39 | 0.309 | 0.334 | 0.337 | 0.301 | 0.735 | 0.322 | 0.762 | 0.76 | 0.387 | 0.555 | 0.573 | 0.45 | 0.592 | 0.451 | 0.567 | 0.697 | 0.604 | 0.647 | 0.523 |
| LCLC-103H | 0.68 | 0.64 | 0.674 | 0.622 | 0.626 | 0.704 | 0.6 | 0.542 | 0.691 | 0.627 | 0.811 | 0.76 | 0.525 | 0.69 | 0.65 | 0.317 | 0.32 | 0.348 | 0.363 | 0.38 |
| NCI-H460 | 0.258 | – | 0.143 | 0.0717 | 0.0851 | 0.43 | 0.457 | 0.519 | 0.343 | 0.217 | 0.645 | – | – | 0.65 | 0.555 | 0.49 | 0.493 | 0.466 | 0.515 | 0.0767 |
| NCI-H441 | 0.498 | 0.386 | 0.492 | 0.383 | 0.352 | 0.427 | 0.458 | 0.571 | 0.506 | 0.403 | 1.12 | 1 | 1.05 | 1.01 | 0.967 | 0.762 | 0.884 | 0.812 | 0.864 | 0.737 |
| SK-LU-1 | 0.468 | 0.499 | 0.385 | 0.43 | 0.383 | 0.565 | 0.543 | 0.483 | 0.512 | 0.408 | – | – | – | – | – | 0.486 | 0.512 | 0.424 | 0.607 | 0.345 |
| Calu-6 | – | – | – | – | – | 0.825 | 0.874 | 0.895 | 0.88 | 0.807 | – | – | – | – | – | – | – | – | – | – |
| NCI-H2228 | 0.523 | 0.526 | 0.48 | 0.415 | 0.334 | 0.337 | 0.304 | 0.539 | 0.389 | 0.47 | – | – | – | – | – | 0.345 | 0.389 | 0.351 | 0.321 | 0.277 |
| COR-L23 | 0.461 | 0.576 | – | 0.544 | 0.429 | 0.731 | 0.532 | – | 0.606 | 0.566 | – | – | – | – | – | 0.401 | 0.44 | 0.416 | 0.526 | 0.336 |
| NCI-H2023 | 0.559 | 0.591 | 0.59 | 0.475 | 0.431 | 0.303 | 0.182 | 0.332 | 0.264 | 0.132 | – | – | – | – | – | 0.403 | 0.428 | 0.349 | 0.38 | 0.217 |
| NCI-H661 | 0.583 | 0.582 | 0.5 | 0.462 | 0.418 | 0.484 | 0.463 | 0.331 | 0.339 | 0.342 | – | – | – | – | – | 0.285 | 0.25 | 0.265 | 0.274 | 0.29 |
| EBC-1 | – | – | – | – | – | 0.376 | 0.336 | 0.451 | 0.416 | 0.257 | – | – | – | – | – | – | – | – | – | – |
| NCI-H522 | 0.817 | 0.6 | – | 0.75 | 0.7 | – | – | – | – | – | 0.909 | 0.759 | – | 0.637 | 0.603 | 0.818 | 0.698 | 0.757 | 0.631 | 0.62 |
| NCI-H1648 | 0.467 | – | 0.643 | – | 0.429 | – | – | – | – | – | 0.676 | – | 0.925 | – | 0.843 | – | – | – | – | – |
| NCI-H1650 | 0.678 | 0.56 | 0.608 | 0.646 | 0.419 | 0.644 | 0.258 | 0.622 | 0.533 | 0.291 | – | – | – | – | – | 0.415 | 0.355 | 0.449 | 0.386 | 0.26 |
| NCI-H2342 | 0.819 | 0.752 | 0.866 | 0.917 | 0.946 | – | – | – | – | – | 0.624 | 0.525 | 0.531 | 0.557 | 0.362 | 0.568 | 0.565 | 0.615 | 0.512 | 0.51 |
| NCI-H1299 | – | – | – | – | – | 0.733 | 0.802 | 0.849 | 0.705 | 0.327 | – | – | – | – | – | – | – | – | – | – |
| SW 900 | 0.548 | 0.691 | 0.877 | 0.785 | 0.83 | – | – | – | – | – | 0.68 | 0.676 | 0.597 | 0.57 | 0.55 | 0.625 | 0.576 | 0.439 | 0.502 | 0.383 |
| IA-LM | – | – | – | – | – | 0.376 | 0.202 | 0.489 | 0.251 | 0.0942 | – | – | – | – | – | – | – | – | – | – |
| A549 | – | – | – | – | – | 0.43 | – | 0.573 | 0.488 | 0.332 | – | – | – | – | – | – | 0.153 | 0.168 | 0.131 | 0.0734 |
| ABC-1 | – | – | – | – | – | 0.686 | 0.591 | 0.671 | 0.648 | 0.436 | 0.784 | 0.784 | 0.955 | 0.666 | 0.445 | 0.266 | 0.19 | 0.212 | 0.226 | 0.26 |
| NCI-H520 | 0.625 | 0.486 | 0.577 | 0.559 | 0.472 | 0.269 | 0.236 | 0.303 | 0.275 | 0.414 | – | – | – | – | – | 0.385 | 0.497 | 0.323 | 0.637 | 0.375 |
